Test results taken from US4321271A, “Heterocyclic and aliphatic growth promotors” (Beecham Group Limited, priority 1979, dated 1982).
Where two headings read alike, the source gives them in different places.

Key:
rumen fluid = assay: In vitro incubation of buffered rumen fluid: volatile fatty acids, methane inhibition and hydrogen; format: cell-based, sheep; conditions: 20 h; for % hydrogen present: headspace gas; for Molar % VFA Acetate / Molar % VFA Butyrate / Molar % VFA Propionate / TVFA: sheep rumen fluid
Method: The compounds were tested for their ability to reduce or inhibit methane production and to enhance propionate formation. The method used is as follows:
The screening system is in vitro incubation of buffered rumen fluid with, or without, the addition of the test compound.
Rumen fluid is removed by suction from two rumen-fistulated sheep, just before feeding. The fluid is strained and mixed. The incubation is for twenty hours in a shaking water-bath at 39° C. Each incubation flask contains: 30 ml McDougall's bicarbonate buffer-pH 6.7-6.9, 10 ml strained rumen fluid, 200 mg substrate (the substrate is a ground sample of the diet on which the sheep has been fed) and 1 ml 10% aqueous ethanol containing 0.2% Tween 80 and the compound under examination. Samples are taken at the end of the incubation period for analysis of headspace gases and volatile fatty acids, by g.l.c. […]

methanogenesis = assay: In vivo "gas collection screen" in sheep (respirometer): methanogenesis and hydrogen evolution; conditions: sheep 50 kg, in diet, 75 mg/day, 5 week period
Method: In vivo Studies in a "gas collection screen":
A Group of 4, 50 kg Sheep were fed diets containing the compound of Example 6 over 5 week period. A different sheep from each group was put into a respirometer for 24 hours each day. Each sheep was thus monitored once in every […]. Gas flow was maintained by a peristatic pump and measured using a commercial gas meter and a sub-sample collected in a butyl-rubber inner tube. Gas analysis was carried out by gas chromatograph using a R/E 204 gas chromatograph with both electron capture and […] detectors.
During a run-in control period it was found the sheep produced 19.2±0.4 liters methane/day and not more than 1.5 liters Hydrogen/day.
The compounds were stable in the feed over the period of the study. By feeding measured amounts to the sheep (no refusals) it was possible to "dose" each sheep with 75 mg/day.

[1] = Ovis aries, read-out: VFA production % difference from control, Acetate
[2] = Ovis aries, read-out: VFA production % difference from control, Butyrate
[3] = Ovis aries, read-out: VFA production % difference from control, Propionate
[4] = Ovis aries, read-out: VFA production % difference from control, TVFA
[5] = Ovis aries, 10 ppm/flask, 39° C

| SMILES | % hydrogen present (rumen fluid; 10 ppm/flask, 39° C) [%] | Molar % VFA Acetate (rumen fluid; 10 ppm/flask, 39° C) [%] | Molar % VFA Butyrate (rumen fluid; 10 ppm/flask, 39° C) [%] | Molar % VFA Propionate (rumen fluid; 10 ppm/flask, 39° C) [%] | TVFA (rumen fluid; 10 ppm/flask, 39° C) [μM/ml] | percent change in VFA production versus control at 10 ppm (rumen fluid; [1]) [%] | percent change in VFA production versus control at 10 ppm (rumen fluid; [2]) [%] | percent change in VFA production versus control at 10 ppm (rumen fluid; [3]) [%] | percent change in VFA production versus control at 10 ppm (rumen fluid; [4]) [%] | inhibition at 10 ppm (rumen fluid; [5]) [%] | percent change in VFA production versus control at 5 µg/mL (rumen fluid; [1]) [%] | percent change in VFA production versus control at 5 µg/mL (rumen fluid; [2]) [%] | percent change in VFA production versus control at 5 µg/mL (rumen fluid; [3]) [%] | percent change in VFA production versus control at 5 µg/mL (rumen fluid; [4]) [%] | inhibition at 5 µg/mL (rumen fluid; Ovis aries, tested at 5 ppm level, 39° C) [%] | % hydrogen present (rumen fluid; tested at 5 ppm level, 39° C) [%] | % inhibition of methanogenesis (methanogenesis) [%] | Hydrogen evolution (methanogenesis) [liters/24h] |
| --- | --- | --- | --- | --- | --- | --- | --- | --- | --- | --- | --- | --- | --- | --- | --- | --- | --- | --- |
| CN1CCN(CC(O)C(Cl)(Cl)Cl)CC1 (stereo not drawn) [Compound A, reference compound] | 0.062 | 65.3 | 9.13 | 21.9 | 56.7 | -35 | 9 | 19.9 | -22.6 | 50.6 |  |  |  |  |  |  |  |  |
| CNCC(O)C(Cl)(Cl)Cl (stereo not drawn) [Example 1, 1,1,1-Trichloro-3-methylaminopropan-2-ol] | 1.43 | 55.3 | 12.1 | 30.4 | 40.6 | -44.7 | -29.7 | 22.3 | -28.2 | 100 |  |  |  |  |  |  |  |  |
| CN(C)CC(O)C(Cl)(Cl)Cl (stereo not drawn) [Example 2, 1,1,1-Trichloro-3-dimethylaminopropan-2-ol] | 1.61 | 55.6 | 12.2 | 29.7 | 43.9 | -35.5 | -18.1 | 31.5 | -18.4 | 100 |  |  |  |  |  |  |  |  |
| CCN(CC)CC(O)C(Cl)(Cl)Cl (stereo not drawn) [Example 3, 1,1,1-Trichloro-3-diethylaminopropan-2-ol] | 1.27 | 54.2 | 12.4 | 30.0 | 43.3 | -42.3 | -20 | 26.8 | -23 | 100 |  |  |  |  |  |  |  |  |
| CC(C)CNCC(O)C(Cl)(Cl)Cl (stereo not drawn) [Example 4, 1,1,1-Trichloro-3-isobutylaminopropan-2-ol] | 1.07 | 55.3 | 12.3 | 30.0 | 40.1 | -45.7 | -29 | 18.8 | -29.4 | 100 |  |  |  |  |  |  |  |  |
| OC(CNC1CCCCC1)C(Cl)(Cl)Cl (stereo not drawn) [Example 5, 1,1,1-Trichloro-3-cyclohexylaminopropan-2-ol] | 1.01 | 56.7 | 10.21 | 31.1 | 44.2 | -31.1 | 14.6 | 32.5 | -11.8 | 100 |  |  |  |  |  |  |  |  |
| OC(CN1CCCCC1)C(Cl)(Cl)Cl (stereo not drawn) [Example 6, 1,1,1-Trichloro-3-(N-piperidino)propan-2-ol] | 1.34 | 57.7 | 9.64 | 30.7 | 45.3 | -25.8 | 7.9 | 34.1 | -8.3 | 100 | -19.1 | 27.7 | 23 | -7.1 | 32.2 | 0.09 | 9.1 | 2.1 |
| OC(CN1CCCC1)C(Cl)(Cl)Cl (stereo not drawn) [Example 7, 1,1,1-Trichloro-3-(N-pyrrolidino)propan-2-ol] | 1.18 | 57.7 | 9.67 | 30.5 | 44.6 | -27.6 |  | 30.5 | -10.4 | 100 |  |  |  |  |  |  |  |  |
